Source: patent publication EP1884243A1, “Use of an antipsychotic drug for the treatment of ALS-associated cachexia” (Charité - Universitätsmedizin Berlin, priority 2006, dated 2008)

How the values were obtained:
[1] = test system: ALS; settings: ALS patients; background statement on the approved therapy; cited from earlier work
[2] = test system: ALS-related cachexia; experiment: Study 3: olanzapine treatment of ALS-related cachexia, case report of a patient; format: in vivo, human being
Source text: A patient is reported, who developed a slowly-progressive motor neuron syndrome. The patient fulfilled the criteria for ALS. The disease began with atrophy and weakness of the proximal left arm followed by weakness of the distal muscles of left upper limb. In the course of 2 years after onset they experienced progressive atrophy and flaccid paresis of the opposite limb with only residual functions in handling articles. After 3 years the disorder progressed to the point that was complete loss of manual functions. The patient developed hypoventilation resulting in ventilatory support using non-invasive intermittent positive pressure ventilation (NIPPV). The patient was without dysphagia.
During the course of 9 months, the patient developed an unintended weight loss of 14.5 kg of body weight. The weight loss was associated with fatigue. The patient suffered from diminished appetite. The body mass index (BMI) reduced from 23.0 kg/ m^2 to 17.5 kg/m^2. Most of the wasting occurred within 5 month before intervention (loss of 8.5 kg of body weight; total body weight reduced from 55 kg to 46.5 kg). For the pharmacological intervention of ALS-related cachexia the medication with olanzapine was initiated. Olanzapine was given orally in the dosage of 5 mg per day. Olanzapine was administered once daily using one tablet of olanzapine 5 mg in the evening. After 4 weeks of treatment, olanzapine dosage was increased to 10 mg per day. Olanzapine was administered twice daily using one tablet of olanzapine 5 mg each in the morning and in the evening. The medication attenuated ALS-related cachexia and wasting. After 2 month of olanzapine treatment the body weight was stabilized (45.5 kg). The loss of BMI was also attenuated (17.1 kg/m^2). The nutritional state and the general strength improved. […] The olanzapine treatment was ongoing. Based on reports on olanzapine-related weight gain in patients with psychosis, the target dose of olanzapine for the treatment of ALS-cachexia is 20 mg per day. In the case of persistent ALS-related weight loss, the treatment with 30 mg olanzapine per day is recommended.

[3] = test system: ALS-related cachexia; experiment: Study: olanzapine treatment of ALS-related cachexia, case report of a patient; format: in vivo, human being
Source text: A patient is reported, who developed a slowly-progressive motor neuron syndrome. The patient fulfilled the criteria for definite ALS. The disease began with atrophy and weakness of the small muscles of the left hand followed by weakness of the right distal arm. In the course of 2 years after onset they experienced slowly progressive atrophy and flaccid paresis of the upper limbs with only residual functions in handling articles. After 4 years they developed a gait disorder which progressed to the point were they required a walking-aid. […] The patient was without dysphagia.
During the course of 10 months, the patient developed an unintended weight loss of 12 kg of body weight resulting in fatigue and reduced mobility. The patient suffered from diminished appetite. The body mass index (BMI) was 17.2 kg/m^2 and fulfilled the diagnostic criteria of cachexia. For the pharmacological intervention of ALS-related cachexia the medication with olanzapine was initiated. Olanzapine was given orally in the dosage of 5 mg per day. Olanzapine was administered twice daily using one tablet of olanzapine 2.5 mg each in the morning and in the evening. […] The BMI increased to 18,8 kg/m^2. […] Residual motor functions were mobilized. […] At the time of this report, the olanzapine treatment was ongoing.

[4] = test system: ALS-related cachexia; experiment: Study 2: olanzapine treatment of ALS-related cachexia, case report of a patient; format: in vivo, human being
Source text: A patient is reported, who developed a slowly-progressive motor neuron syndrome. The patient fulfilled the criteria for ALS. The disease began with atrophy and weakness of the small muscles of the right hand followed by weakness of the proximal muscles of right arm and the opposite upper limb. In the course of 4 years after onset they experienced progressive atrophy and flaccid paresis of the lower limbs resulting in a gait disorder. […] The patient was without dysphagia.
During the course of 12 months, the patient developed an unintended weight loss of 8.5 kg of body weight. The weight loss was associated with fatigue. The patient suffered from diminished appetite. The body mass index (BMI) reduced from 23.3 kg/ m^2 to 20.5 kg/m^2. At the same time the ALS functional rating scale (ALS-FRS revised) changed from 43 to 39 units. Most of the wasting occurred within 6 month before intervention (loss of 6.5 kg of body weight; total body weight of 61.5 kg). For the pharmacological intervention of ALS-related cachexia the medication with olanzapine was initiated. Olanzapine was given orally in the dosage of 5 mg per day. Olanzapine was administered once daily using one tablet of olanzapine 5 mg in the evening. The medication attenuated ALS-related cachexia and wasting. After 2 month of olanzapine treatment the body weight was stabilized (61.0 kg). The loss of BMI was also attenuated (20.3 kg/m^2). […] Residual motor functions were mobilized. […] At the time of this report, the olanzapine dosage was increased to 10 mg per day. Olanzapine was administered twice daily using one tablet of olanzapine 5 mg each in the morning and in the evening. […] The olanzapine treatment was ongoing. Based on reports on olanzapine-related weight gain in patients with psychosis, the target dose of olanzapine for the treatment of ALS-cachexia is 20 mg per day. In the case of persistent ALS-related weight loss, the treatment with 30 mg olanzapine per day is recommended.

SMILES | prolonging an ALS-patient's lifetime [1] | body weight ([2]; after 2 month of olanzapine (5 mg per day, after 4 weeks 10 mg per day, orally), 46.5 kg before intervention) [kg] | BMI ([2]; after 2 month of olanzapine (5 mg per day, after 4 weeks 10 mg per day, orally), BMI 17.5 kg/m^2 before intervention) [kg/m^2] | adverse events ([2]; olanzapine orally 5 mg per day, after 4 weeks 10 mg per day) | adverse events ([3]; olanzapine orally 5 mg per day) | weight gain ([3]; olanzapine orally 5 mg per day (2.5 mg twice daily), within the course of 8 weeks, patient, BMI 17.2 kg/m^2 before treatment) [kg] | BMI ([3]; olanzapine orally 5 mg per day, after treatment (8 weeks), BMI before treatment 17.2 kg/m^2) | BMI ([4]; after 2 month of olanzapine 5 mg per day orally, BMI 20.5 kg/m^2 before intervention) [kg/m^2] | body weight ([4]; after 2 month of olanzapine 5 mg per day orally, total body weight 61.5 kg before intervention) [kg] | adverse events ([4]; olanzapine orally 5 mg per day, later increased to 10 mg per day)
Nc1nc2ccc(OC(F)(F)F)cc2s1 [Riluzole] | 1.5-2.5 months |  |  |  |  |  |  |  |  | 
Cc1cc2c(s1)Nc1ccccc1N=C2N1CCN(C)CC1 [olanzapine] |  | 45.5 | 17.1 | not associated with adverse events | not associated with adverse events | 6 | 18,8 kg/m^2 | 20.3 | 61.0 | not associated with adverse events
